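Cells were grown in 96-well plates and exposed to each compound for 48 hours at five concentrations; endpoints were interpolated linearly between bracketing concentrations, or set to the highest concentration if not reached. GI50 marks 50% less growth. TGI denotes the concentration required for complete inhibition of growth.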
Tests used:
Experiment in all cases: inhibition of tumour cell growth, NCI panel, 48 h
[1] = test system: UO-31 renal
[2] = test system: SNB-19 CNS
[3] = test system: UACC-62 melanoma
[4] = test system: CAKI-1 renal
[5] = test system: COLO 205 colon
[6] = test system: HL-60(TB) leukemia
[7] = test system: MDA-MB-435
[8] = test system: MCF7 breast
[9] = test system: SF-539 CNS
[10] = test system: HCC-2998 colon

Compound | GI50 [1] [µM] | TGI [1] [µM] | GI50 [2] [µM] | TGI [2] [µM] | GI50 [3] [µM] | TGI [3] [µM] | GI50 [4] [µM] | TGI [4] [µM] | GI50 [5] [µM] | TGI [5] [µM] | GI50 [6] [µM] | TGI [6] [µM] | GI50 [7] [µM] | TGI [7] [µM] | GI50 [8] [µM] | TGI [8] [µM] | GI50 [9] [µM] | TGI [9] [µM] | TGI [10] [µM] | GI50 [10] [µM]
COc1ccc2c(c1)[n+](=O)c(C(=O)c1ccco1)c(C(F)(F)F)n2[O-] | 0.387 | 2.51 | 4.25 | 45.5 | 1.75 | 4.91 | 0.642 | 4.54 | 3.55 | 18.7 | 3.29 | > 100 | 3.08 | 14.5 | 3.82 | > 100 | 3.41 | 15.6 |  | 
Cc1ccc(S(=O)(=O)N2CCSCCN(S(=O)(=O)c3ccc(C)cc3)CCN(S(=O)(=O)c3ccc(C)cc3)CC2)cc1 |  | > 100 |  | > 100 |  | > 100 |  |  |  | > 100 |  | > 100 |  | > 100 |  | > 100 |  | 56.8 | > 100 | 
CN(Cc1cc(Br)cc(Br)c1O)Cc1cc(Br)cc(Br)c1O | 1.08 | 14.6 | 4.86 | 36 | 1.8 | 11.8 | 0.612 | 12.5 | 3.72 | 15.2 | 1.08 | 10.9 | 3.79 | 22.6 | 2.96 | 15 | 2.61 | 20.2 | 17 | 3.5
COc1ccc(C(=O)c2cc(OC)c(OC)c(OC)c2)cc1/C=C/C(=O)c1ccc(OC)c(OC)c1 |  |  | 2.7 | > 100 |  |  | 0.829 | > 100 | 3.07 | > 100 |  |  | 2.29 | > 100 | 0.418 | > 100 | 3.08 | > 100 | > 100 | 4.14
C[C@H](Nc1ncnc2nc[nH]c12)c1cc2ccc(F)cc2nc1-c1ccccn1 | 9.3 | > 100 | > 100 | > 100 | 9.29 | > 100 | 33.7 | > 100 | > 100 | > 100 | 30.3 | > 100 | > 100 | > 100 | 28.4 | > 100 | > 94.7 | > 100 | > 100 | > 100
Cc1ccc2ncnc(N(CC(C)C)CC(C)C)c2c1 | 22.2 | > 100 | 20.5 | 42.9 | 14.5 | 32.1 | 12.8 | 26.6 | 16.9 | 39.1 |  |  | 18.5 | 34.7 | 21.5 | > 100 |  |  | 35.7 | 16.2
CC(=O)c1cc(C(=O)c2ccc3c(c2)Sc2ccccc2N3)c2c(C)cc(C)cn12 | 0.635 | > 100 | 0.443 | > 100 | 0.254 | > 100 | 0.529 | 72.9 | 0.222 | 0.535 |  |  | 0.0468 | 0.237 | 0.239 | > 100 | 0.185 | 0.535 | > 100 | 0.494

Source: PubChem BioAssay (NCI)
